Columns and labels:
MDA-MB-468 = assay: Inhibition of cell proliferation by payloads in vitro (CCK-8); format: cell-based; conditions: Homo sapiens, MDA-MB-468, 144 h; payloads, proliferation, 6 days, CCK-8; read-out: IC50, nM MDA-MB-468
Experimental: (§1) The cells were added to a 96-well plate at 1.0×10^3 cells/well and 100 μL/well and incubated in a cell culture incubator at 37° C. and 5% CO2. The test compounds were diluted with a DMEM medium containing 2% DMSO (Sigma-Aldrich, Cat. No. 34869) in a 4-fold gradient to the corresponding concentrations. […] The final concentration of DMSO was 0.2%. The cells were incubated in a cell culture incubator at 37° C. and 5% CO2 for 6 days.
(§2) After 6 days of culture, 10 μL/well of Cell Counting Kit-8 reagent (CCK-8, Dojindo, Cat. No. CK04) was added to the wells and mixed well with shaking. The cells were incubated in a cell culture incubator at 37° C. and 5% CO2 for 0.50-4.0 hours.
(§3) The OD450 optical density value was read on an EnVision™ multi-function microplate reader (PerkinElmer), and the inhibition rates (%) of the compounds were calculated. Then, the half-maximal inhibitory concentration (IC50) values were obtained using the XLfit5 software (ID Business Solutions Limited). All samples were tested in duplicate wells.
(§4) [formula] • wherein • OD450test compound represents the optical density value in the wells of the compounds to be tested; • OD450cell represents the optical density value in the wells of cell controls; • OD450background represents the optical density value in the wells of cell-free controls.

MDA-MB-453 = assay: as above; format: cell-based; conditions: Homo sapiens, MDA-MB-453, 144 h, read-out: IC50, nM MDA-MB-453; payloads, proliferation, 6 days, CCK-8
Experimental: as §1, §2, §3, §4

[1] = biological target: T1, Human PIK3CA/PIK3R1 (p110α/p85α) recombinant protein (Homo sapiens, UniProt P42336); assay: PIK3CA/PIK3R1 (p110α/p85α) kinase activity, Transcreener ADP2 FP; format: biochemical; conditions: 10 μM ATP, 30 μM PIP2:PS; read-out: PIK3CA/PIK3R1 (p110α/p85α) (Enzyme, IC50)
T1 construct: His tag; purchased Invitrogen PV4788
Experimental: The complex formed by the binding of the ADP Alexa633 Tracer to the ADP2 antibody therein could produce fluorescence polarization. […] Assay is carried out according to the instruction of the kit. […] After that, 10 μl PIK3CA/PIK3R1 (p110α/p85α) enzyme solution was added to each well; then, 10 μl of a mixed solution of ATP and PIP2:PS lipid kinase substrate was added to each well, and the mixture was centrifuged at 1000 rpm for 60 seconds; Then, the 96-well plate was placed in a constant temperature incubator protected from light and incubated at room temperature for 1 hour. […] After the enzymatic reaction was completed, 25 μl of ADP detection mixture was added to the positive control group, 25 μl of ADP detection mixture without ADP^2 antibody was added to the negative control group, and 25 μl of ADP detection mixture without tracer-label ADP and ADP^2 antibody was added to the blank control group. Then centrifugation was performed at 1000 rpm for 60 seconds. The 96-well plate was placed in a constant temperature incubator protected from light, and incubated at room temperature for 1.5 hours. […] [formula] The inhibition rate was calculated using the formula as below: [formula]

ATM(h) = ATM(h) (Homo sapiens, UniProt Q13315); assay: ATM(h) kinase activity, HTRF (Eurofins Cerep); format: biochemical; conditions: read-out: ATM(h) (enzyme, IC50)
Experimental: (§5) The […], ATM(h), ATR/ATRIP(h), and DNA-PK (h) were detected by HTRFR.
(§6) The calculation formula was as follows: […]
(§7) For IC50 determination, the data were analyzed using XLFit version 5.3 (ID Business Solutions).

ATR/ATRIP(h) = biological target: T2, ATR/ATRIP(h) (Homo sapiens, UniProt Q13535); assay: ATR/ATRIP(h) kinase activity, HTRF (Eurofins Cerep); format: biochemical; conditions: read-out: ATR/ATRIP(h) (enzyme, IC50)
T2 construct: purchased Eurofins Cerep 14-953
Experimental: as §5, §6, §7

DNA-PK(h) = biological target: T3, DNA-PK(h) (Homo sapiens, UniProt P78527); assay: DNA-PK(h) kinase activity, HTRF (Eurofins Cerep); format: biochemical; conditions: read-out: DNA-PK(h) (enzyme, IC50)
T3 construct: purchased Eurofins Cerep 14-950
Experimental: as §5, §6, §7

[2] = biological target: T4, Human FRAP1 (mTOR) recombinant protein (Homo sapiens, UniProt P42345); assay: FRAP1 (mTOR) kinase activity, LanthaScreen TR-FRET; format: biochemical; conditions: 10 μM ATP, 0.4 μM GFP-4EBP1; read-out: FRAP1 (mTOR) (Enzyme, IC50)
T4 construct: GST; purchased Invitrogen PV4753
Experimental: Determination of FRAP1 (mTOR) Kinase Activity • Human FRAP1 (mTOR) recombinant protein (GST tag): Invitrogen, Cat. No. PV4753; • GFP-4E-BP1: Thermo Scientific, Cat. No. PV4759; • LanthaScreenTM Tb-p4E-BP1 ([…]) antibody: Thermo Scientific, Cat. No. PV4755; • TR-FRET dilution buffer: Thermo Scientific, Cat. No. PV3574; • ATP solution (10 mM): Thermo Scientific, Cat. No. PV3227; • HEPES (1 M): Gibco, Cat. No. 15630-106; • EDTA (0.5 M), pH 8.0, RNase-free: Invitrogen, Cat. No. A[…]; • Manganese chloride solution: Sigma-Aldrich, Cat. No. M1787; • EGTA: Sigma-Aldrich, Cat. No. E4378; • TWEEN®20: Sigma-Aldrich, Cat. No. P2287; • DTT: Sigma-Aldrich, Cat. No. DTT-RO; • 384-well plate: Corning, Cat. No. 3676; • 384-well plate: Corning, Cat. No. 4514; • Envision multi-mode plate reader: PerkinElmer; 4EBP1 is the substrate of mTOR, and when mTOR is activated, it will phosphorylate […] of the 4EBP1 protein. LanthaScreenTM kinase assay is used to detect the amount of phosphorylated substrate GFP-4E-BP1 produced in kinase activity experiments, thereby judging the mTOR kinase activity, and through the strength of the kinase activity, distinguishing the inhibitory effects of different compounds on the activity of FRAP1 (mTOR) kinase. […] Then, the 384-well plate was placed in a constant temperature incubator protected from light and incubated at room temperature for 1 hour. […] The 384-well plate was taken out and the plate was read using an Envision multi-mode plate reader (the excitation light wavelength was 320 nm and the emission light wavelengths were 495 nm and 520 nm). The inhibition rate was calculated using the formula as below: [formula]

T2 sequence (Q13535 whole entry): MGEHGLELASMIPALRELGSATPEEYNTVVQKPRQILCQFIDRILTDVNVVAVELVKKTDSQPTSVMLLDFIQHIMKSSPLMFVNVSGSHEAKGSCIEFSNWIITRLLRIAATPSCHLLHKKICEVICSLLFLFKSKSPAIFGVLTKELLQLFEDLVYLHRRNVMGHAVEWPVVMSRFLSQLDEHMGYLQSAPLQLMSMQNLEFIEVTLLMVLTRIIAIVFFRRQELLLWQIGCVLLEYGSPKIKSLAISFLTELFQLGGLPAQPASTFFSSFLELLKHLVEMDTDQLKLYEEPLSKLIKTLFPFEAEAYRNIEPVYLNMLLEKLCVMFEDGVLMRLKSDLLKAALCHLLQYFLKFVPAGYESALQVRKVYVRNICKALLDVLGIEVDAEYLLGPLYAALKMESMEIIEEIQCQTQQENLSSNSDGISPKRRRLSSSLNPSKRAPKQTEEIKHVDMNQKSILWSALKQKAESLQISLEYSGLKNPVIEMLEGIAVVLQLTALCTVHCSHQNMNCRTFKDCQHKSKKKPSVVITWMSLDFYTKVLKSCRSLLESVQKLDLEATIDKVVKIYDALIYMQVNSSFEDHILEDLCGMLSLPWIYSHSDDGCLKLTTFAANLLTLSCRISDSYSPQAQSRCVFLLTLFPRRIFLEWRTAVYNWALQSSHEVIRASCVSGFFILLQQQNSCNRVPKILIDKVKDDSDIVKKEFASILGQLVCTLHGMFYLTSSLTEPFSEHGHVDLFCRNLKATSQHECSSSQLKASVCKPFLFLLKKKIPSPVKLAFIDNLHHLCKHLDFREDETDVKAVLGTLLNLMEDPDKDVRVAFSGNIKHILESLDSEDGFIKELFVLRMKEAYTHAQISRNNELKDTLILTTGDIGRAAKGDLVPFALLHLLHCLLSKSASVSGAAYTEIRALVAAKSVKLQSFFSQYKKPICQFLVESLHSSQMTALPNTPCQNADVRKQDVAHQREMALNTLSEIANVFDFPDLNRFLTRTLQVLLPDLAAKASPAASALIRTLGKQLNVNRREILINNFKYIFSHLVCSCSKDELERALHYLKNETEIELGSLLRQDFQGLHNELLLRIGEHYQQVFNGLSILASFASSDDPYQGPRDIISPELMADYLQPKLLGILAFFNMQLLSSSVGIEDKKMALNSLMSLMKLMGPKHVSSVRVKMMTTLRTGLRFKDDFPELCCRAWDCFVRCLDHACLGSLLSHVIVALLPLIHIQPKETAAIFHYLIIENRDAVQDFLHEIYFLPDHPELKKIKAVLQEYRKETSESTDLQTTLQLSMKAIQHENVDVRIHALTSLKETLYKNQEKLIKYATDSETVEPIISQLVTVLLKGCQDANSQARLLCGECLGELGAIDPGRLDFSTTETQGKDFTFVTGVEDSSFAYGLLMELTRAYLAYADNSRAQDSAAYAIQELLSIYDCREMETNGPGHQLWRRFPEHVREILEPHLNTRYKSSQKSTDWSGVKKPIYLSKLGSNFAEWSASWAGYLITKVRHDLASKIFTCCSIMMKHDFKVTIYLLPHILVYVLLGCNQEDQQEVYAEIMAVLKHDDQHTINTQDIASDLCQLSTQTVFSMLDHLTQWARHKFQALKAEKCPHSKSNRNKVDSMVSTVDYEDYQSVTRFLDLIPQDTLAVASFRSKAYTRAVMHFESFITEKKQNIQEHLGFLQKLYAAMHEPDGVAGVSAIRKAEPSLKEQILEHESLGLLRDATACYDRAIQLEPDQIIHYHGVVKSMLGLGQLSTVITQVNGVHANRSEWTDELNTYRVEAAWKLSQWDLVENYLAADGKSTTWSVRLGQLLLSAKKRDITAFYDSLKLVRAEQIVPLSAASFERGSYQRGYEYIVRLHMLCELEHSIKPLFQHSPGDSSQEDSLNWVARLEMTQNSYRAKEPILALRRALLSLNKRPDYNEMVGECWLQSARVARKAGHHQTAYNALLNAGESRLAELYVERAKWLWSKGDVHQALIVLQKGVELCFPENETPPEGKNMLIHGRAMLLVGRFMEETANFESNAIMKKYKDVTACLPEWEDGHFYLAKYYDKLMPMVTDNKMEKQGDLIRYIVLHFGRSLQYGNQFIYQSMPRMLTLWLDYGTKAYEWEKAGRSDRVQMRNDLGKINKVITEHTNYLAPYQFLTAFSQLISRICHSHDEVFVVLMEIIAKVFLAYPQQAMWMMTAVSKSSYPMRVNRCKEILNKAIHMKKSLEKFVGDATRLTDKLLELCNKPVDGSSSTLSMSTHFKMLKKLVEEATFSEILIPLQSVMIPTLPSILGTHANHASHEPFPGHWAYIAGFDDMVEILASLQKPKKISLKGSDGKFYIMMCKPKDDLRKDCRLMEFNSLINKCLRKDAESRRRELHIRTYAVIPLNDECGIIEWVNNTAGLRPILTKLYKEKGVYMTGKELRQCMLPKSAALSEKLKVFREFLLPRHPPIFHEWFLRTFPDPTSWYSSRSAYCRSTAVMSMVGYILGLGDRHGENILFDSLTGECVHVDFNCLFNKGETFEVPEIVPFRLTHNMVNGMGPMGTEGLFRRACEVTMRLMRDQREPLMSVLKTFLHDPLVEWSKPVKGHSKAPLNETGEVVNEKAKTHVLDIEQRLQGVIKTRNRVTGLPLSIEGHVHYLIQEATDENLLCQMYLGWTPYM
T2 sequence (Q8WXE1 whole entry partner): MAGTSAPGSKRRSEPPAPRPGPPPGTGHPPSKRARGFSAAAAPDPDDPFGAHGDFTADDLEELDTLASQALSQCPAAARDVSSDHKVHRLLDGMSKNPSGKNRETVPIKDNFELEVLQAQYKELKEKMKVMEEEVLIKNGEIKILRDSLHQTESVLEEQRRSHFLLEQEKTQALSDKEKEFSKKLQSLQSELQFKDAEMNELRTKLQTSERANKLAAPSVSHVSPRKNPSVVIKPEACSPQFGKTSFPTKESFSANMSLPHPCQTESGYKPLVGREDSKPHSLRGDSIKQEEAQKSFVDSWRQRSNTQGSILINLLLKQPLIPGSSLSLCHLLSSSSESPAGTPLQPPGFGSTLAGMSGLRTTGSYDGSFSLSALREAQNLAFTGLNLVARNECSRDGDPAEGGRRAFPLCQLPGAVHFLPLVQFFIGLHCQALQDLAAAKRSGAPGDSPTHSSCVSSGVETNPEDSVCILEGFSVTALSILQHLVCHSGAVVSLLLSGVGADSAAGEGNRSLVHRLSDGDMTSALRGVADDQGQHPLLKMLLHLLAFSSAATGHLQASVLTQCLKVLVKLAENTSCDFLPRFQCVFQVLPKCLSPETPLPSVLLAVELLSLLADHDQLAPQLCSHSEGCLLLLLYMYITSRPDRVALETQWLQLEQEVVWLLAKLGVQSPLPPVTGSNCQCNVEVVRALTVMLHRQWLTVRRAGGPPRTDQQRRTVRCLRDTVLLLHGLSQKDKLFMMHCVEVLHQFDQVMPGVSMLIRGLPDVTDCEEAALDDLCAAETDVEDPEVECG
T4 sequence (P42345 1360-2549 limits assumed): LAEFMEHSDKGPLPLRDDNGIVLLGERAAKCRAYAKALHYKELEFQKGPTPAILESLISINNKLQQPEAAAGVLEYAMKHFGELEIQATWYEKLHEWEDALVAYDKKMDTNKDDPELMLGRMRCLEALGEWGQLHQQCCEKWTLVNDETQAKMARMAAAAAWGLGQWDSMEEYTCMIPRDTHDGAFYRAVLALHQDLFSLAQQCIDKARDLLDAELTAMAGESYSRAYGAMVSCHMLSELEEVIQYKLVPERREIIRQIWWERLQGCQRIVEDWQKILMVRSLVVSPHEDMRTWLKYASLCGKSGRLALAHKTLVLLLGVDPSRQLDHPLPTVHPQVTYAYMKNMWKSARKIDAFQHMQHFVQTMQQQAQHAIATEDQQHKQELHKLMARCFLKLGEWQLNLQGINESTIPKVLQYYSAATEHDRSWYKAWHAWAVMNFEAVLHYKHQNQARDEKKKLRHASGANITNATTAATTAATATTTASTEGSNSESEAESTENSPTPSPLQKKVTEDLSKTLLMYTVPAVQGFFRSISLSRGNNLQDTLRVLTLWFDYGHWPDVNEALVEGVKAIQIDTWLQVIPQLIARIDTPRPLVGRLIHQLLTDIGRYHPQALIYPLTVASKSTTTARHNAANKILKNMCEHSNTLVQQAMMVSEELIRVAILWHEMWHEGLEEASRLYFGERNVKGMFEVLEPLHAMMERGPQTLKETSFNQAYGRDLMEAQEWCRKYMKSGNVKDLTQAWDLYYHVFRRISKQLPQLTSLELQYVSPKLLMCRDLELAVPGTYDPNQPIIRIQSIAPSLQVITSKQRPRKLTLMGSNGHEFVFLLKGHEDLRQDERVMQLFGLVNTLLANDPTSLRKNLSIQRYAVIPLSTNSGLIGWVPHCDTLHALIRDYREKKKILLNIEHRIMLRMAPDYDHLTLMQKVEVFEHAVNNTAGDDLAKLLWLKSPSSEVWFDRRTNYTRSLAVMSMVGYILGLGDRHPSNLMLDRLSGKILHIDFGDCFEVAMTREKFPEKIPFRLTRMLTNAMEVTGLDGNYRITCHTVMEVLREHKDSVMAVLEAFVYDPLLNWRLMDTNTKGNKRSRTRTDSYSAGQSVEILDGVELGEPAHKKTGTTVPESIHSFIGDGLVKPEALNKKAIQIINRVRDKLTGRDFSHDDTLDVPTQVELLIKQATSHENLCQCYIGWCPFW

Row | SMILES | IC50 (MDA-MB-468) | IC50 (MDA-MB-453) | IC50 [1] | IC50 (ATM(h)) | IC50 (ATR/ATRIP(h)) | IC50 (DNA-PK(h)) | IC50 [2]
1 | COc1ncc(-c2ccc3ncc4nnc(C5CC5)n4c3c2)cc1NS(=O)(=O)N1CCNCC1 [Compound 9] | 1 nM | – | – | – | – | – | –
2 | COc1ncc(-c2ccc3ncc4c(c3c2)n(C2CC2)c(=O)n4CC(F)(F)F)cc1NS(=O)(=O)N1CCNCC1 [Compound 33] | 3 nM | 2.3 nM | – | – | – | – | –
3 | COc1ncc(-c2ccc3ncc4nccn4c3c2)cc1NS(=O)(=O)N1CCNCC1 [Compound 21] | 4.9 nM | 6.6 nM | – | – | – | – | –
4 | COc1ncc(-c2ccc3ncc4c(c3c2)n([C@H]2C[C@H](CO)C2)c(=O)n4C)cc1NS(=O)(=O)N1CCNCC1 [Compound 8] | 0.21 nM | 0.32 nM | – | – | – | – | –
5 | COc1ncc(-c2ccc3ncc4c(c3c2)n(C)c(=O)n4C)cc1NS(=O)(=O)N1CCNCC1 [Compound 6] | 0.32 nM | 0.25 nM | – | – | – | – | –
6 | COc1ncc(-c2ccc3ncc4c(c3c2)n(CC(F)(F)F)c(=O)n4C)cc1NS(=O)(=O)N1CCNCC1 [Compound 32] | 0.24 nM | 0.22 nM | 2.8 nM | 0.6 nM | 17 nM | 0.3 nM | –
7 | COc1ncc(-c2ccc3ncc4c(c3c2)n(C2CC2)c(=O)n4C)cc1NS(=O)(=O)N1CCN(C)CC1 [Compound 10] | – | 2.3 nM | – | – | – | – | –
8 | COc1ncc(-c2ccc3ncc4cnc(C5CCC5)n4c3c2)cc1NS(=O)(=O)N1CCNCC1 [Compound 18] | 0.091 nM | – | 2.1 nM | – | – | – | 6.2 nM
9 | COc1ncc(-c2ccc3ncc4c(c3c2)n(C2CC2)c(=O)n4C)cc1NS(=O)(=O)C1CCNCC1 [Compound 14] | 0.41 nM | 0.39 nM | 0.6 nM | – | – | – | 11.2 nM
10 | COc1ncc(-c2ccc3ncc4cnc(C5CC(F)(F)C5)n4c3c2)cc1NS(=O)(=O)N1CCNCC1 [Compound 24] | 0.2 nM | 0.24 nM | 1.8 nM | – | – | – | –
11 | COc1ncc(-c2ccc3ncc4c(c3c2)n(C2CC(F)(F)C2)c(=O)n4C)cc1NS(=O)(=O)N1CCNCC1 [Compound 25] | 0.2 nM | 0.34 nM | – | – | – | – | 10.8 nM
12 | COc1ncc(-c2ccc3ncc4c(c3c2)n(C2CC2)c(=O)n4C)cc1NS(=O)(=O)N1CC2CNCC2C1 (stereo not drawn) [Compound 12] | 7.9 nM | 3.3 nM | – | – | – | – | –
13 | COc1ncc(-c2ccc3ncc4c(c3c2)n(C2COC2)c(=O)n4C)cc1NS(=O)(=O)N1CCNCC1 [Compound 16] | 91.4 nM | 61.6 nM | – | – | – | – | –
14 | COc1ncc(-c2ccc3ncc4c(c3c2)n(C2CC2)c(=O)n4C)cc1NS(=O)(=O)N1CCN(CCO)CC1 [Compound 22] | 9.2 nM | 6.5 nM | – | – | – | – | –
15 | COc1ncc(-c2ccc3ncc4c(c3c2)n([C@H]2C[C@H](CO)C2)c(=O)n4C)cc1NS(=O)(=O)N1CCN(C)CC1 [Compound 26] | 1.9 nM | 1.8 nM | – | – | – | – | –
16 | COc1ncc(-c2ccc3ncc4cnc(C)n4c3c2)cc1NS(=O)(=O)N1CCNCC1 [Compound 20] | 1 nM | – | – | – | – | – | –
17 | COc1ncc(-c2ccc3ncc4nnc(C5CCC5)n4c3c2)cc1NS(=O)(=O)N1CCNCC1 [Compound 4] | 0.71 nM | 0.89 nM | – | – | – | – | –
18 | COc1ncc(-c2ccc3ncc4c(c3c2)n([C@@H]2C[C@@H]2F)c(=O)n4C)cc1NS(=O)(=O)N1CCNCC1 [Compound 27] | 0.29 nM | 0.24 nM | – | 0.7 nM | 17 nM | 0.2 nM | 6.4 nM
19 | COc1ncc(-c2ccc3ncc4c(c3c2)n([C@H]2C[C@H](O)C2)c(=O)n4C)cc1NS(=O)(=O)N1CCNCC1 [Compound 7] | 0.22 nM | 0.3 nM | 0.5 nM | – | – | – | 2.7 nM
20 | COc1ncc(-c2ccc3ncc4nnc(C5CC5)n4c3c2)cc1NS(=O)(=O)N1CCN(C)CC1 [Reference compound 1, reference compound] | 6 nM | 7.9 nM | – | – | – | – | –
21 | Cn1c(=O)n(C2CC2)c2c3cc(-c4cnc(OCC(F)(F)F)c(NS(=O)(=O)N5CCNCC5)c4)ccc3ncc21 [Compound 34] | 3.4 nM | 2.8 nM | – | – | – | – | –
22 | COc1ncc(-c2ccc3ncc4c(c3c2)C(C2CC2)N=N4)cc1NS(=O)(=O)N1CCNCC1 (stereo not drawn) [Compound 13] | 1.8 nM | 1.3 nM | – | – | – | – | –
23 | COc1ncc(-c2ccc3ncc4c(c3c2)n(C2CCCC2)c(=O)n4C)cc1NS(=O)(=O)N1CCNCC1 [Compound 19] | 0.055 nM | 0.12 nM | 1.4 nM | – | – | – | 8.6 nM
24 | COc1ncc(-c2ccc3ncc4ncn(C5CCC5)c4c3c2)cc1NS(=O)(=O)N1CCNCC1 [Compound 17] | 3.4 nM | 1.8 nM | – | – | – | – | –
25 | COc1ncc(-c2ccc3ncc4ncc(C5CC5)n4c3c2)cc1NS(=O)(=O)N1CCNCC1 [Compound 23] | 1.4 nM | 0.55 nM | 0.7 nM | – | – | – | 3.4 nM
26 | [2H]C([2H])([2H])n1c(=O)n(C2CC2)c2c3cc(-c4cnc(OC)c(NS(=O)(=O)N5CCNCC5)c4)ccc3ncc21 [Compound 35] | 0.2 nM | 0.22 nM | – | – | – | – | –
27 | COc1ncc(-c2ccc3ncc4c(c3c2)n(C2CCC2)c(=O)n4C)cc1NS(=O)(=O)N1CCNCC1 [Compound 5] | 0.09 nM | 0.064 nM | 1.6 nM | – | – | – | 7.5 nM
28 | COc1ncc(-c2ccc3ncc4c(c3n2)n(C2CC2)c(=O)n4C)cc1NS(=O)(=O)N1CCNCC1 [Compound 28] | 0.24 nM | – | 0.6 nM | 0.6 nM | 13 nM | 0.3 nM | 2.8 nM
29 | COc1ncc(-c2ccc3ncc4c(C)nc(C5CC5)n4c3c2)cc1NS(=O)(=O)N1CCNCC1 [Compound 31] | – | 0.24 nM | – | 0.4 nM | 15 nM | 0.2 nM | –
30 | COc1ncc(-c2ccc3ncc4c(c3c2)n(C2CC2)c(=O)n4C)cc1NS(=O)(=O)N1CCC2(CC1)CNC2 [Compound 15] | 18.4 nM | 14.9 nM | – | – | – | – | –

From US20260048138A1, “NOVEL PI3K AND/OR PIKK INHIBITORS, ANTIBODY-DRUG CONJUGATES COMPRISING THE SAME AND USES THEREOF” (HUTCHMED LIMITED, priority 2024, published 2026)
